Laboratory results taken from ChEMBL document CHEMBL5291721, “A preclinical secondary pharmacology resource illuminates target-adverse drug reaction associations of marketed drugs” (Nat Commun, 2023).

What was measured:
[1] = target: T1, Alpha-2A adrenergic receptor (Homo sapiens, UniProt P08913); type: functional, cell-based
T1 sequence (P08913 whole entry): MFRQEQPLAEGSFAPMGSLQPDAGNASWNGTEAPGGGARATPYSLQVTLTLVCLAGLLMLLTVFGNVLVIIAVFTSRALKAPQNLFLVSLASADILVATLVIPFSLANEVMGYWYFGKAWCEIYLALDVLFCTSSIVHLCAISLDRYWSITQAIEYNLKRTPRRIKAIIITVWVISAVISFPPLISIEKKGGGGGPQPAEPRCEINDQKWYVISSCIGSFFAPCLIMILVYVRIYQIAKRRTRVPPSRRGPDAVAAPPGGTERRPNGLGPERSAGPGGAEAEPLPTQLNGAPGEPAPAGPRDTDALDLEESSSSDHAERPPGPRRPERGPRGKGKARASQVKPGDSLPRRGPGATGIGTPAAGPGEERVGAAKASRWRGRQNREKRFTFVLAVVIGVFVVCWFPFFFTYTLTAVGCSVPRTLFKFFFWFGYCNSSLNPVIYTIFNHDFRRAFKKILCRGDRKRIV

[2] = target: T2, Alpha-2B adrenergic receptor (Homo sapiens, UniProt P18089)
T2 sequence (P18089 whole entry): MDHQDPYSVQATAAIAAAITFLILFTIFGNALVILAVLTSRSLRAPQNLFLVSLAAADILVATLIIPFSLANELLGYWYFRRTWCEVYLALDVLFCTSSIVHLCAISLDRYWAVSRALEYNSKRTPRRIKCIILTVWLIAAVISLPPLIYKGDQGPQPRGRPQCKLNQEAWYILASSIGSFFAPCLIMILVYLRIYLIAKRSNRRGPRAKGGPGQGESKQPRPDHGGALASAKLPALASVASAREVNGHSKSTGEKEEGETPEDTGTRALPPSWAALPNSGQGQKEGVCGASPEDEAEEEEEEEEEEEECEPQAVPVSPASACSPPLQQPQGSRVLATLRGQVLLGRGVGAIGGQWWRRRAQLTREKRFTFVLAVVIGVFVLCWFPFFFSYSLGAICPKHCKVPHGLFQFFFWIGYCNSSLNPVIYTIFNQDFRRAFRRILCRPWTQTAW

[3] = target: T3, Alpha-2C adrenergic receptor (Homo sapiens, UniProt P18825); type: functional
T3 sequence (P18825 whole entry): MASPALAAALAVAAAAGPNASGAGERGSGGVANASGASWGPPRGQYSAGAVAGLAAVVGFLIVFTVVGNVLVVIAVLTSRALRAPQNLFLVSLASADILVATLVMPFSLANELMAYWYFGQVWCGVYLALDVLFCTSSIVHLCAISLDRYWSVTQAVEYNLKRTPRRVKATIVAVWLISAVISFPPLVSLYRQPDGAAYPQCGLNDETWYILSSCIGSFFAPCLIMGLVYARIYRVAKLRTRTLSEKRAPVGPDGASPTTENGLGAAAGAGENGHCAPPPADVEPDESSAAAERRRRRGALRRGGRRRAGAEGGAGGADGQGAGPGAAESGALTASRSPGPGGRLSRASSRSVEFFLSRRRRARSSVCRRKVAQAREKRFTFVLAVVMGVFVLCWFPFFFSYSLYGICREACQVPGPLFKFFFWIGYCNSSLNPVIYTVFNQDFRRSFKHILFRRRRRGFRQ

[4] = target: T4, Type-1 angiotensin II receptor (Homo sapiens, UniProt P30556)
T4 sequence (P30556 whole entry): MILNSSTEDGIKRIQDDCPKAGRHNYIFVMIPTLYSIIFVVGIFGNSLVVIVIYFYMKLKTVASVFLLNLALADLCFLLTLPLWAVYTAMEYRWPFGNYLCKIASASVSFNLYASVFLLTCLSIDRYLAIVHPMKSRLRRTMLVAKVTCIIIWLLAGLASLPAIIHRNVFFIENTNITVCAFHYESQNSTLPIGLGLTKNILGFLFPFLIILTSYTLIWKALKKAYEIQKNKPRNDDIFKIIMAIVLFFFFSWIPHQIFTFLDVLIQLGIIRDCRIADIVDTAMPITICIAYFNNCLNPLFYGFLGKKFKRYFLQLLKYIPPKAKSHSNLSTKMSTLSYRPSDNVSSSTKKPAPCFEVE

[5] = target: Cannabinoid receptor 1 (Homo sapiens, UniProt P21554); type: functional, cell-based
Cannabinoid receptor 1, sequence (P21554 whole entry): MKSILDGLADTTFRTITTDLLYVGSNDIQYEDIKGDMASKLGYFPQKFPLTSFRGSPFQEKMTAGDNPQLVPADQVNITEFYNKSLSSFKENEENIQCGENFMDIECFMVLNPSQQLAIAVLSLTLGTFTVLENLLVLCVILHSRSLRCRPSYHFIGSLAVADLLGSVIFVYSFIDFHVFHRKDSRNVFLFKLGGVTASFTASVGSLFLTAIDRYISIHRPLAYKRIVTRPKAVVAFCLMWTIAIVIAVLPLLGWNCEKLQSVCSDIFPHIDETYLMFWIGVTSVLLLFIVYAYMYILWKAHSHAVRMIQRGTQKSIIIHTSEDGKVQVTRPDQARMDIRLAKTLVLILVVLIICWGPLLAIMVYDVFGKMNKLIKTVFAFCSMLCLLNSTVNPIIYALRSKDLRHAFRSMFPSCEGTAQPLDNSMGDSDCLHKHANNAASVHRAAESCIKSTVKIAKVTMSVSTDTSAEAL

[6] = target: 5-hydroxytryptamine receptor 2A (Homo sapiens, UniProt P28223); type: functional, cell-based
5-hydroxytryptamine receptor 2A, sequence (P28223 whole entry): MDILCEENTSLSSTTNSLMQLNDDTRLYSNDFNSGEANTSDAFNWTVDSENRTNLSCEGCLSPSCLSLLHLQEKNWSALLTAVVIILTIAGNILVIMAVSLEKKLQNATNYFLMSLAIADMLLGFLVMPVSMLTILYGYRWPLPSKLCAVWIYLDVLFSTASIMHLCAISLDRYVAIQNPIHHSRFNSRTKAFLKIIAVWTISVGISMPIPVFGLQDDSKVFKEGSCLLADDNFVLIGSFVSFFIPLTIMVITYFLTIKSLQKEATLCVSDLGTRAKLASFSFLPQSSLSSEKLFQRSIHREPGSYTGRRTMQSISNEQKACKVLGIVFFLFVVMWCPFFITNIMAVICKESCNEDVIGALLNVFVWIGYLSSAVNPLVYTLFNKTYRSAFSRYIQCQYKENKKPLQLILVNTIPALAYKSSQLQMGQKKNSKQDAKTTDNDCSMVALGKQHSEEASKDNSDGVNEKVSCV

[7] = target: T5, 5-hydroxytryptamine receptor 2C (Homo sapiens, UniProt P28335)
T5 sequence (P28335 whole entry): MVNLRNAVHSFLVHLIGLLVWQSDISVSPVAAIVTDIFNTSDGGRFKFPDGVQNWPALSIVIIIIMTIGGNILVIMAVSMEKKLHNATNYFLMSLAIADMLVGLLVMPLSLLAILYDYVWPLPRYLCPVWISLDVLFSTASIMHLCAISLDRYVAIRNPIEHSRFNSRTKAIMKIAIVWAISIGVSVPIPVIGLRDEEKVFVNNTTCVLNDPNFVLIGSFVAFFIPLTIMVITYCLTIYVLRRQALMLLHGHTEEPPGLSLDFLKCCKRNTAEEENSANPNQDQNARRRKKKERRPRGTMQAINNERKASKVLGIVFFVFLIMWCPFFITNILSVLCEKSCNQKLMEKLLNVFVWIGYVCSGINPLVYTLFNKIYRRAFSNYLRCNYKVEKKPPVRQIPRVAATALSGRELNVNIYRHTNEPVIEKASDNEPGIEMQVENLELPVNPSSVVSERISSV

[8] = target: Melanocortin receptor 3 (Homo sapiens, UniProt P41968)
Melanocortin receptor 3, sequence (P41968 whole entry): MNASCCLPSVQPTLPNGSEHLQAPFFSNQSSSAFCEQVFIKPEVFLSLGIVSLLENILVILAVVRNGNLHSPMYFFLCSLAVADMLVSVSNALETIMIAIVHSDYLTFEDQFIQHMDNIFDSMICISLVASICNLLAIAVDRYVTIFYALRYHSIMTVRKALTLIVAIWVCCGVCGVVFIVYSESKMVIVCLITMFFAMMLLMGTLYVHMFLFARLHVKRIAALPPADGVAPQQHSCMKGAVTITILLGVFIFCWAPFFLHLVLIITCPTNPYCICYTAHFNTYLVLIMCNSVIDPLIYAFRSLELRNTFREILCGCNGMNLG

[9] = target: Sodium-dependent noradrenaline transporter (Homo sapiens, UniProt P23975)
Sodium-dependent noradrenaline transporter, sequence (P23975 whole entry): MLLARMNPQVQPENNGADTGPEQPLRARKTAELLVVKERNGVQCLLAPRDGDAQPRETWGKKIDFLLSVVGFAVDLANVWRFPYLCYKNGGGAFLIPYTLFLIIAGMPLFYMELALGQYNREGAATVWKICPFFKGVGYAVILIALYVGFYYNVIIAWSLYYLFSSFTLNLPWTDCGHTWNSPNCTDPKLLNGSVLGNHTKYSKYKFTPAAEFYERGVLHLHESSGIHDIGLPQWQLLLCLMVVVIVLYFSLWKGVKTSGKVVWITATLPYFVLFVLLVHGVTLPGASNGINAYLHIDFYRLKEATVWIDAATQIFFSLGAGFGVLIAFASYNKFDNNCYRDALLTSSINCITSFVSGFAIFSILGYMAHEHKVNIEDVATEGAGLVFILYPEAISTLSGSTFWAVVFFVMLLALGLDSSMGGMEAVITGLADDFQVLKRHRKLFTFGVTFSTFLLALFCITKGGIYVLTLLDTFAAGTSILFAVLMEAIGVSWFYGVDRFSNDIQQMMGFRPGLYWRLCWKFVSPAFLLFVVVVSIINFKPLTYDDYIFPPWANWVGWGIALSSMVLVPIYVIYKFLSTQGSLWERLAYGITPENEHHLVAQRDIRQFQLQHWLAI

[10] = target: T6, Alpha-1A adrenergic receptor (Homo sapiens, UniProt P35348); type: functional, cell-based
T6 sequence (P35348 whole entry): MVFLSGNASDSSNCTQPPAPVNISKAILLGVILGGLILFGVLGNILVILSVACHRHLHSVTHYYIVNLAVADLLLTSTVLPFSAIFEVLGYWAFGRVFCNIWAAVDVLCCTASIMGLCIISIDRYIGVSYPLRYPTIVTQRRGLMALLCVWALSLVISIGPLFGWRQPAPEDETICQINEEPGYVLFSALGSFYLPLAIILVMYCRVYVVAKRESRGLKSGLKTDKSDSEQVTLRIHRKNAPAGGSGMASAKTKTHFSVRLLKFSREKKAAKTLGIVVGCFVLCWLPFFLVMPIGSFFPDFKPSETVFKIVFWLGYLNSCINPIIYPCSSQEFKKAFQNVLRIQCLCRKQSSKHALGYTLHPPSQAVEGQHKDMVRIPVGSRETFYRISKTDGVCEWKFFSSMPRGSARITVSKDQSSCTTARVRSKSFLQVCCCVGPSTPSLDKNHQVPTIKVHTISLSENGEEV
Note: assay procedure not described here.

Row | Structure (SMILES) | AC50 [1] [µM] | AC50 [2] [µM] | AC50 [3] [µM] | AC50 [4] [µM] | AC50 [5] [µM] | AC50 [6] [µM] | AC50 [7] [µM] | AC50 [8] [µM] | AC50 [9] [µM] | AC50 [10] [µM]
1 | CC(C)(Oc1ccc(Cl)cc1)C(=O)OCCOC(=O)c1cccnc1 [ETOFIBRATE] | > 30 | > 30 | > 30 | > 30 | > 30 | > 30 | > 30 | > 30 | > 30 | > 30
2 | CCn1c(=O)c2c(nc(/C=C/c3ccc(OC)c(OC)c3)n2C)n(CC)c1=O [ISTRADEFYLLINE] | – | – | > 30 | – | – | > 30 | – | > 30 | > 30 | > 30
3 | CC1(C)O[C@@H]2C[C@H]3[C@@H]4CCC5=CC(=O)C=C[C@]5(C)[C@@]4(F)[C@@H](O)C[C@]3(C)[C@]2(C(=O)CO)O1 [TRIAMCINOLONE ACETONIDE] | > 30 | – | > 30 | > 30 | > 30 | – | > 30 | > 30 | – | –
4 | C[C@]12CCC(=O)C=C1[C@@H]1C[C@@H]1[C@H]1[C@@H]3[C@@H]4C[C@@H]4[C@@]4(CCC(=O)O4)[C@@]3(C)CC[C@@H]12 [DROSPIRENONE] | – | > 30 | > 30 | > 30 | – | > 30 | > 30 | > 30 | > 30 | > 30
5 | COc1ccc(-c2cc(=S)ss2)cc1 [ANETHOLTRITHION] | > 30 | > 30 | > 30 | 9.3 | > 30 | > 30 | > 30 | 18 | 7.3 | > 30
6 | CN(C)CCC(O)(c1ccccc1)c1ccccc1Cl (stereo not drawn) [CHLOPHEDIANOL] | > 10 | > 10 | > 10 | > 10 | > 30 | > 10 | 8.3 | > 10 | > 10 | –
7 | COc1cccc2c1C(=O)c1c(O)c3c(c(O)c1C2=O)C[C@@](O)(C(=O)CO)C[C@@H]3O[C@H]1C[C@H](N)[C@H](O)[C@H](C)O1 [DOXORUBICIN] | > 10 | – | > 30 | > 30 | > 30 | – | > 30 | > 30 | > 30 | –
8 | N=C(N)NC(=O)c1nc(Cl)c(N)nc1N [AMILORIDE] | > 30 | – | > 30 | > 30 | – | – | > 30 | > 30 | > 30 | > 30
9 | CC(C)(C)NCC(O)COc1ccccc1C#N (stereo not drawn) [BUNITROLOL] | > 30 | 26 | > 30 | – | > 30 | > 30 | > 30 | – | – | > 30
10 | COc1ccc(C(=O)c2ccccc2)c(O)c1 [OXYBENZONE] | > 30 | > 30 | > 30 | – | > 30 | > 30 | > 30 | – | – | > 30
11 | CN(C)[C@@H]1C(O)=C(C(=O)NCN2CCCC2)C(=O)[C@@]2(O)C(O)=C3C(=O)c4c(O)cccc4[C@@](C)(O)[C@H]3C[C@@H]12 [ROLITETRACYCLINE] | > 10 | > 10 | > 10 | > 10 | > 30 | > 30 | > 30 | > 10 | > 10 | > 30
12 | C[C@]12C=CC(=O)C=C1CC[C@@H]1[C@@H]2[C@@H](O)C[C@@]2(C)[C@H]1CC[C@]2(O)C(=O)CO [PREDNISOLONE] | > 10 | – | > 10 | > 30 | > 30 | – | > 30 | > 30 | > 30 | > 30
13 | C[C@]12CCC(=O)C=C1C=C[C@@H]1[C@@H]2CC[C@@]2(C)[C@H]1CC[C@@]21CCC(=O)O1 [CANRENONE] | > 30 | > 30 | > 30 | > 30 | > 30 | > 30 | > 30 | > 30 | > 30 | > 30
14 | C[C@]12C=CC(=O)C=C1C(Cl)=C[C@@H]1[C@@H]2[C@@H](O)C[C@@]2(C)[C@H]1CC[C@]2(O)C(=O)CO [CLOPREDNOL] | > 30 | > 30 | > 30 | > 30 | > 30 | > 30 | 8.7 | > 30 | > 30 | –
15 | Cc1cn(-c2cc(NC(=O)c3ccc(C)c(Nc4nccc(-c5cnccn5)n4)c3)cc(C(F)(F)F)c2)cn1 [RADOTINIB] | – | – | > 30 | – | – | > 30 | – | > 30 | > 30 | > 30
16 | CCC(=O)c1ccc2c(c1)N(CC(C)N(C)C)c1ccccc1S2 (stereo not drawn) [PROPIOMAZINE] | > 10 | 0.32 | 4.5 | > 10 | – | > 10 | 0.18 | > 10 | > 10 | –
17 | Cc1ccc(O)c([C@H](CCN(C(C)C)C(C)C)c2ccccc2)c1 [TOLTERODINE] | > 10 | > 10 | > 10 | – | > 30 | – | > 30 | – | > 10 | > 30
18 | Oc1cc(Cl)ccc1Oc1ccc(Cl)cc1Cl [TRICLOSAN] | > 30 | > 30 | > 30 | 24 | > 30 | > 30 | > 30 | > 30 | 0.7 | > 30
